Results reported in patent US20200316056A1, “Pain Medicine Combination and Uses Thereof” (Mindlab, LLC, priority 2013, published 2020).
Values joined by “and” are separate entries in the source; they are usually repeats but may differ in a detail not shown here. Equal values may be shown once.

Test system: rats
Experiment: Ugo Basile Tail Flick method (Example 2)
Type: in vivo
Details: for Tail Flick Time (seconds) after administration: individual rats 1-7; for Tail Flick Time (seconds) after administration, Mean: mean of 7 rats; for Tail Flick Time (seconds) after administration, Median: median of 7 rats
Experimental: The addition of quinidine to a pharmaceutical composition of morphine, and dextromethorphan was tested using Ugo Basile Tail Flick method. This method is often used for in vivo screening of multiple drugs with analgesic activity. The animal was placed and held on the Ugo Basile Tail Flick instrument surface with the tail straight back and across an infrared light source. The heat source and timer are turned on by a foot pedal press, and automatically switch off when the animal flicks its tail off the emitter. Latency time is measured and analyzed as an analgesic effect. Each preparation was tested in 7 rats.

| Structure (SMILES) | Tail Flick Time (seconds) after administration (1 h after administration) | Tail Flick Time (seconds) after administration, Mean (1 h after administration) | Tail Flick Time (seconds) after administration, Median (1 h after administration) | Tail Flick Time (seconds) after administration (3 h after administration) | Tail Flick Time (seconds) after administration, Mean (3 h after administration) | Tail Flick Time (seconds) after administration, Median (3 h after administration) | Tail Flick Time (seconds) after administration (5 h after administration) | Tail Flick Time (seconds) after administration, Mean (5 h after administration) | Tail Flick Time (seconds) after administration, Median (5 h after administration) | Tail Flick Time (seconds) after administration (8 h after administration) | Tail Flick Time (seconds) after administration, Mean (8 h after administration) | Tail Flick Time (seconds) after administration, Median (8 h after administration) | Tail Flick Time (seconds) after administration (10 h after administration) | Tail Flick Time (seconds) after administration, Mean (10 h after administration) | Tail Flick Time (seconds) after administration, Median (10 h after administration) | Tail Flick Time (seconds) after administration (14 h after administration) | Tail Flick Time (seconds) after administration, Mean (14 h after administration) | Tail Flick Time (seconds) after administration, Median (14 h after administration) | Tail Flick Time (seconds) after administration (24 h after administration) | Tail Flick Time (seconds) after administration, Mean (24 h after administration) | further results |
| --- | --- | --- | --- | --- | --- | --- | --- | --- | --- | --- | --- | --- | --- | --- | --- | --- | --- | --- | --- | --- | --- |
| COc1ccc2c(c1)[C@]13CCCC[C@@H]1[C@H](C2)N(C)CC3 [Dextromethorphan] | 4.10 s and 3.90 s and 3.30 s and 4.80 s and 5.60 s and 3.70 s and 7.30 s | 4.67 s | 4.10 s | 3.90 seconds and 4.60 seconds (2×) and 4.50 seconds and 5.40 seconds and 3.30 seconds and 8.70 seconds | 5.00 s | 4.60 s | 4.60 seconds and 6.40 seconds (2×) and 2.90 seconds and 5.10 seconds and 4.10 seconds and 4.50 seconds | 4.86 s | 4.60 s | 5.40 s and 5.10 s and 3.70 s and 7.30 s and 4.30 s and 3.80 s and 3.60 s | 4.74 s | 4.30 s | 3.10 seconds and 5.50 seconds and 4.30 seconds and 4.80 seconds (2×) and 3.90 seconds and 6.60 seconds | 4.71 s | 4.80 s | 3.90 seconds (2×) and 5.20 seconds and 5.60 seconds and 3.80 seconds and 5.10 seconds and 4.10 seconds | 4.51 s | 4.10 s | 3.50 seconds (2×) and 4.70 seconds and 4.30 seconds and 5.20 seconds and 3.70 seconds and 3.10 seconds | 4.00 s | Tail Flick Time (seconds) after administration, Median (24 h after administration): 3.70 s |
| CN1CC[C@]23c4c5ccc(O)c4O[C@H]2[C@@H](O)C=C[C@H]3[C@H]1C5 [Morphine] | 5.80 s and 5.10 s and 6.50 s and 30.10 s and 6.80 s and 10.50 s and 3.70 s | 9.79 s | 6.50 s | 6.30 s and 7.60 s and 2.70 s and 9.50 s and 5.30 s and 5.90 s and 4.80 s | 6.01 s | 5.90 s | 4.80 seconds and 6.60 seconds and 5.90 seconds and 10.90 seconds and 4.90 seconds and 4.60 seconds (2×) | 6.04 s | 4.90 s | 6.90 s and 10.50 s and 8.30 s and 8.50 s and 6.70 s and 6.30 s and 3.50 s | 7.24 s | 6.90 s | 4.70 s and 4.10 s and 4.80 s and 6.50 s and 6.20 s and 4.20 s and 2.90 s | 4.77 s | 4.70 s | 3.50 seconds and 7.50 seconds and 5.10 seconds (2×) and 7.80 seconds and 2.90 seconds and 4.10 seconds | 5.14 s | 5.10 s | 4.80 seconds (2×) and 7.60 seconds and 4.30 seconds and 3.40 seconds and 4.90 seconds and 6.10 seconds | 5.13 s | Tail Flick Time (seconds) after administration, Median (1 h after administration, listed as morphine): 6.5 s; Tail Flick Time (seconds) after administration, Median (24 h after administration): 4.80 s |
